Test results: patent US8664236B2, “1H-pyrrolo[2,3 b]-pyridine derivatives” (Merck Patent GmbH, priority 2010, dated 2014)
Where two headings read alike, the source gives them in different places.

How the values were obtained:
[1] = target: PDK1 kinase in PC3 cells (PKB phosphorylation at Thr 308) (Homo sapiens (Human), UniProt O15530); test: Cellular testing of PDK1 kinase inhibitors in PC3 cells (Luminex, phospho-T308-PKB); assay type: cell-based
Description: Method for the Cellular Testing of PDK1 Kinase Inhibitors in PC3 Cells
The cellular assay for the determination of the PDK1 kinase activity is carried out as a Luminex assay in the 96-well format. PC3 cells are sown at 20,000 cells per well in 100 μl of medium (45% of […]/45% of Ham's F12/10% of FCS) and incubated on the following day for 30 min with a serial dilution of the test substance (7 concentrations) under serum-free conditions. The cells are subsequently lysed using 90 μl of lysis buffer (20 mM tris/HCl pH 8.0, 150 mM NaCl, 1% of NP40, 10% of glycerol, 1% of phosphatase inhibitor I, 1% of phosphatase inhibitor II, 0.1% of protease inhibitor cocktail III, 0.01% of benzonase) per well, and the lysates are separated off from insoluble cell constituents by means of centrifugation through a 96-well filter plate (0.65 μm). The lysates are incubated overnight at 4° C. with shaking with Luminex beads to which an anti-total PKB antibody is coupled. The detection is carried out on the following day by addition of a phospho-T308-PKB antibody and a species-specific […] secondary antibody. The detection of phospho-T308-PKB is carried out by measurement in a Luminex100 instrument by determination of 100 events per cavity in a measurement time of 60 sec. […] The values of the batches treated with test substance are calculated therefrom as percentage of control, and IC50 values are determined by means of RS1.

[2] = target: PDK1 (His6-PDK1(Δ1-50)) (Homo sapiens (Human), UniProt O15530); test: Test for the inhibition of PDK1 (enzymatic, flashplate, 33P-ATP); assay type: biochemical
Sequence of PDK1 (His6-PDK1(Δ1-50)) (O15530 51-556): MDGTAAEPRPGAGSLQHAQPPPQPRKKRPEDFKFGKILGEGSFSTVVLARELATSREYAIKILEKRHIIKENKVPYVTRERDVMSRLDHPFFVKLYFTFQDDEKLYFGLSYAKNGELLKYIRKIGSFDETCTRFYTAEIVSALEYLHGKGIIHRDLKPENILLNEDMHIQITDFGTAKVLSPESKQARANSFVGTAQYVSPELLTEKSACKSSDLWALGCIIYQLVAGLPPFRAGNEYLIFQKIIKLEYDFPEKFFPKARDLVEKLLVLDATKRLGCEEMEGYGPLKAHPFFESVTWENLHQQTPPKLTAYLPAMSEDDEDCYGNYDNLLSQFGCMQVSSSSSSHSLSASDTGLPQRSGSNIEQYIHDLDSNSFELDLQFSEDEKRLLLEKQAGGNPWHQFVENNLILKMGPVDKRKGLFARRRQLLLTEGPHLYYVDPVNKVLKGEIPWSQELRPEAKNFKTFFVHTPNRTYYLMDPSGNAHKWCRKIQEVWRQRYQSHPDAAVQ
Description: 4. Test for the Inhibition of PDK1
The experimental batches are carried out in a flashplate system with 384 wells/microtitration plate.
The test substances are employed in corresponding concentrations (if desired in a dilution series). The control is carried out without test substance. The reaction is stopped using standard methods and washed. The activity of the kinase is measured via the incorporated radioactivity in top count. In order to determine the non-specific kinase reaction (blank value), the experimental batches are carried out in the presence of 100 nM staurosporine.
The radioactivity (decompositions per minute) of the blank value (no use of test substance in the presence of staurosporine) is subtracted from all other radioactivity values. The controls (kinase activity without test substance) are set equal to 100 percent and all other radioactivity values (after subtracting the blank value) are expressed set in relation thereto (for example in % of the control).

[3] = PKB phosphorylation at Thr 308 in PC3 cells, read-out: cellular IC50
[4] = Table I comparison, read-out: PDK1 inhibition assay enzymatic IC50
[5] = enzymatic PDK1 inhibition assay, read-out: enzymatic IC50
[6] = Table I comparison, values given in μM, read-out: PDK1 inhibition assay cellular IC50

Sequence of PDK1 kinase in PC3 cells (PKB phosphorylation at Thr 308) (O15530 whole entry): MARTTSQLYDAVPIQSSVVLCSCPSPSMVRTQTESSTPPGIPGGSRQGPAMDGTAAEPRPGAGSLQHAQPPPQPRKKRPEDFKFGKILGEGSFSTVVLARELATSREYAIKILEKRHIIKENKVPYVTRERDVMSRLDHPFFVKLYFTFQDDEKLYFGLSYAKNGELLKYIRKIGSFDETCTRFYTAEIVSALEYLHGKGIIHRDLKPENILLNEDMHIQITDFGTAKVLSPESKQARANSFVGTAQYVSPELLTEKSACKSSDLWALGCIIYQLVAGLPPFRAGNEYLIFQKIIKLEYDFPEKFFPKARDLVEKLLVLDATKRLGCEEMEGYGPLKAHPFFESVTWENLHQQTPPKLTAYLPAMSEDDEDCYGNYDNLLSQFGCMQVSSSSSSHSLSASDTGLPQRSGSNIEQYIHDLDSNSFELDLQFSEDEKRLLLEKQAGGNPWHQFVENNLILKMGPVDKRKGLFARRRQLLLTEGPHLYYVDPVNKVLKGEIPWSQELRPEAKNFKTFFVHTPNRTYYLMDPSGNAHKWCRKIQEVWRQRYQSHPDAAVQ

| SMILES | IC50 [1, 3] [nM] | IC50 [2, 5] [nM] | further results |
| --- | --- | --- | --- |
| CC(=O)NCCCN(c1ccccc1)c1cc(-c2c[nH]c3ncc(-c4cnn(C)c4)cc23)nc(N)n1 [A43, N-[3-({2-Amino-6-[5-(1-methyl-1H-pyrazol-4-yl)-1H-pyrrolo-[2,3-b]pyridin-3-yl]pyrimidin-4-yl}phenylamino)propyl]acetamide] | 430 | 22 | IC50 ([1]; Table I comparison, values in nM, read-out: PDK1 inhibition assay cellular IC50): 430 nM; IC50 [2, 4]: 22 nM |
| CN(c1cc(-c2c[nH]c3ncc(-c4cnn(C)c4)cc23)nc(N)n1)c1ccccc1Cl [A10, N4-(2-Chlorophenyl)-N4-methyl-6-[5-(1-methyl-1H-pyrazol-4-yl)-1H-pyrrolo[2,3-b]pyridin-3-yl]pyrimidine-2,4-diamine] | 26 | 7.6 | – |
| CN(c1cccc(Cl)c1)c1cc(-c2c[nH]c3ncc(-c4cnn(C)c4)cc23)nc(N)n1 [A8, N4-(3-Chlorophenyl)-N4-methyl-6-[5-(1-methyl-1H-pyrazol-4-yl)-1H-pyrrolo[2,3-b]pyridin-3-yl]pyrimidine-2,4-diamine] | 200 | 51 | – |
| COc1ccc(N(C[C@H](O)CO)c2cc(-c3c[nH]c4ncc(-c5cnn(C)c5)cc34)nc(N)n2)cc1 [A5, (S)-3-[{2-Amino-6-[5-(1-methyl-1H-pyrazol-4-yl)-1H-pyrrolo-[2,3-b]pyridin-3-yl]pyrimidin-4-yl}-(4-methoxyphenyl)amino]-propane-1,2-diol] | 6800 | 24 | – |
| COCC(O)CN(c1ccccc1)c1cc(-c2c[nH]c3ncc(-c4cnn(C)c4)cc23)nc(N)n1 (centres unmarked) [A21, 1-({2-Amino-6-[5-(1-methyl-1H-pyrazol-4-yl)-1H-pyrrolo[2,3-b]-pyridin-3-yl]pyrimidin-4-yl}phenylamino)-3-methoxypropan-2-ol] | 520 | 11 | – |
| CN(c1cccc(F)c1)c1cc(-c2c[nH]c3ncc(-c4cnn(C)c4)cc23)nc(N)n1 [A1, N4-(3-Fluorophenyl)-N4-methyl-6-[5-(1-methyl-1H-pyrazol-4-yl)-1H-pyrrolo[2,3-b]pyridin-3-yl]pyrimidine-2,4-diamine] | 280 | 34 | – |
| CCN(c1ccc(Cl)cc1)c1cc(-c2c[nH]c3ncc(-c4cnn(C)c4)cc23)nc(N)n1 [A13, N4-(4-Chlorophenyl)-N4-ethyl-6-[5-(1-methyl-1H-pyrazol-4-yl)-1H-pyrrolo[2,3-b]pyridin-3-yl]pyrimidine-2,4-diamine] | 120 | 46 | – |
| Cn1cc(-c2cnc3[nH]cc(-c4cc(C(C)(C)c5ccccc5)nc(N)n4)c3c2)cn1 [A2, 4-(1-Methyl-1-phenylethyl)-6-[5-(1-methyl-1H-pyrazol-4-yl)-1H-pyrrolo[2,3-b]pyridin-3-yl]pyrimidin-2-ylamine] | 140 | 65 | – |
| Cn1cc(-c2cnc3[nH]cc(-c4cc(N(CCC#N)c5ccccc5Cl)nc(N)n4)c3c2)cn1 [A30, 3-[{2-amino-6-[5-(1-methyl-1H-pyrazol-4-yl)-1H-pyrrolo[2,3-b]-pyridin-3-yl]pyrimidin-4-yl}-(2-chlorophenyl)amino]propionitrile] | – | – | IC50 [2]: 9.1 nM |
| Cn1cc(-c2cnc3[nH]cc(-c4cc(N5CCOc6ccccc65)nc(N)n4)c3c2)cn1 [A27, 4-(2,3-Dihydrobenzo-1,4-oxazin-4-yl)-6-[5-(1-methyl-1H-pyrazol-4-yl)-1H-pyrrolo[2,3-b]pyridin-3-yl]pyrimidin-2-ylamine] | > 10000 | 5 | – |
| CC(C)Cn1cc(-c2cnc3[nH]cc(-c4cc(CCCN)nc(N)n4)c3c2)cn1 [reference compound] | – | – | IC50 [1, 6]: > 30000 nM; IC50 [2, 4]: 11 nM |
| Cn1cc(-c2cnc3[nH]cc(-c4cc(C5(c6ccccc6)CC5)nc(N)n4)c3c2)cn1 [A3, 4-[5-(1-Methyl-1H-pyrazol-4-yl)-1H-pyrrolo[2,3-b]pyridin-3-yl]-6-(1-phenylcyclopropyl)pyrimidin-2-ylamine] | 110 | 59.5 | – |
| CCN(c1cc(-c2c[nH]c3ncc(-c4cnn(C)c4)cc23)nc(N)n1)c1nncs1 [A20, N4-Ethyl-6-[5-(1-methyl-1H-pyrazol-4-yl)-1H-pyrrolo[2,3-b]pyridin-3-yl]-N4-1,3,4-thiadiazol-2-ylpyrimidine-2,4-diamine] | > 10000 | 155 | – |
| Cn1cc(-c2cnc3[nH]cc(-c4cc(C5(c6ccccc6F)CC5)nc(N)n4)c3c2)cn1 [A42, 4-[1-(2-Fluorophenyl)cyclopropyl]-6-[5-(1-methyl-1H-pyrazol-4-yl)-1H-pyrrolo[2,3-b]pyridin-3-yl]pyrimidin-2-ylamine] | 20 | 45.5 | – |
| CCN(Cc1ccccc1)c1cc(-c2c[nH]c3ncc(-c4cnn(C)c4)cc23)nc(N)n1 [A14, N4-Benzyl-N4-ethyl-6-[5-(1-methyl-1H-pyrazol-4-yl)-1H-pyrrolo[2,3-b]pyridin-3-yl]pyrimidine-2,4-diamine] | 530 | 51 | – |
| CN(c1cccc(F)c1)c1cc(-c2c[nH]c3ncc(-c4cnn(C)c4)cc23)ncn1 [A30a] | 660 | – | – |

The next lines start with results.

| IC50 [1, 3] [nM] | IC50 [2, 5] [nM] | SMILES | further results |
| --- | --- | --- | --- |
| 9700 | 89 | Cn1cc(-c2cnc3[nH]cc(-c4cc(N(CCN5CCOCC5)c5cccc(F)c5)nc(N)n4)c3c2)cn1 [A28, N4-(3-Fluorophenyl)-6-[5-(1-methyl-1H-pyrazol-4-yl)-1H-pyrrolo[2,3-b]pyridin-3-yl]-N4-(2-morpholin-4-ylethyl)pyrimidine-2,4-diamine] | – |
| 35 | 6.5 | Cn1cc(-c2cnc3[nH]cc(-c4cc(N(CCO)c5ccc(F)cc5F)nc(N)n4)c3c2)cn1 [A25, 2-[{2-Amino-6-[5-(1-methyl-1H-pyrazol-4-yl)-1H-pyrrolo[2,3-b]-pyridin-3-yl]pyrimidin-4-yl)-(2,4-difluorophenyl)amino]ethanol] | – |
| 2100 | – | CC(C)n1cc(-c2cnc3[nH]cc(-c4cc(N(CCO)c5ccccc5Cl)nc(N)n4)c3c2)cn1 [A15, 2-[{2-Amino-6-[5-(1-isopropyl-1H-pyrazol-4-yl)-1H-pyrrolo[2,3-b]pyridin-3-yl]pyrimidin-4-yl)-(2-chlorophenyl)amino]-ethanol] | – |
| 6800 | 8.7 | Cn1cc(-c2cnc3[nH]cc(-c4cc(N(CCCN)c5ccccc5)nc(N)n4)c3c2)cn1 [A31, N4-(3-Aminopropyl)-6-[5-(1-methyl-1H-pyrazol-4-yl)-1H-pyrrolo[2,3-b]pyridin-3-yl]-N4-phenylpyrimidine-2,4-diamine] | IC50 [1, 6]: 6800 nM; IC50 [2, 4]: 8.7 nM |
| 1400 | 870 | Cn1cc(-c2cnc3[nH]cc(-c4cc(C5(c6ccc(Cl)cc6)CCCC5)nc(N)n4)c3c2)cn1 [A7, 4-[1-(4-Chlorophenyl)cyclopentyl]-6-[5-(1-methyl-1H-pyrazol-4-yl)-1H-pyrrolo[2,3-b]pyridin-3-yl]pyrimidin-2-ylamine] | – |
| 400 | 30 | CC(C)n1cc(-c2cnc3[nH]cc(-c4cc(N(C)c5ccccc5Cl)nc(N)n4)c3c2)cn1 [A19, N4-(2-Chlorophenyl)-6-[5-(1-isopropyl-1H-pyrazol-4-yl)-1H-pyrrolo[2,3-b]pyridin-3-yl]-N4-methylpyrimidine-2,4-diamine] | – |
| 27 | 9.7 | CN(c1cc(-c2c[nH]c3ncc(-c4cnn(C)c4)cc23)nc(N)n1)c1ccccc1F [A9, N4-(2-Fluorophenyl)-N4-methyl-6-[5-(1-methyl-1H-pyrazol-4-yl)-1H-pyrrolo[2,3-b]pyridin-3-yl]pyrimidine-2,4-diamine] | – |
| 2.6 | 4.7 | Cn1cc(-c2cnc3[nH]cc(-c4cc(N(CCO)c5ccccc5Cl)nc(N)n4)c3c2)cn1 [A16, 2-[{2-Amino-6-[5-(1-methyl-1H-pyrazol-4-yl)-1H-pyrrolo[2,3-b]-pyridin-3-yl]pyrimidin-4-yl}-(2-chlorophenyl)amino]ethanol] | – |
| 470 | 69 | COC(=O)CN(c1ccc(Cl)cc1)c1cc(-c2c[nH]c3ncc(-c4cnn(C)c4)cc23)nc(N)n1 [A24, Methyl [{2-amino-6-[5-(1-methyl-1H-pyrazol-4-yl)-1H-pyrrolo-[2,3-b]pyridin-3-yl]pyrimidin-4-yl)-(4-chlorophenyl)amino]acetate] | – |
| 25.5 | 7 | COCCN(c1cc(-c2c[nH]c3ncc(-c4cnn(C)c4)cc23)nc(N)n1)c1ccccc1Cl [A29, N4-(2-Chlorophenyl)-N4-(2-methoxyethyl)-6-[5-(1-methyl-1H-pyrazol-4-yl)-1H-pyrrolo[2,3-b]pyridin-3-yl]pyrimidine-2,4-diamine] | – |
